Patent US12071671B2 (priority 2018, dated 2024)
Read-outs that look alike come from different tables or passages of the source.

Columns and labels:
[1] = test system: HMCLs with the low AOX/ROS risk signatures (JJN3, XG-6, XG-19, XG-20, XG-24); test: HMCL viability, Cell Titer Glo assay, IC50 at 96h (low AOX/ROS risk signature lines); assay type: cell-based, human; conditions: for IC50: Homo sapiens; for fold higher sensitivity of low AOX/ROS HMCLs as compared to high AOX/ROS HMCLs: ratio of median IC50 at 96h, p<0.003
Method: (§1) The HMCLs XG-6, XG-19, XG-20, XG24, JJN3, AMO1, LP1, L363, OPM2 and RPMI8226 were grown in RPMI-1640 supplemented with 10% FBS. XG-6, XG-19, XG-20, XG-24, and LP1 media was supplemented with 2 ng/mL recombinant IL-6. Cells were plated in 96-well plate in 200 μL complete medium. After 24h, cells were treated with increasing concentrations of Melphalan (European Pharmacopeia Reference-Standards, France) or Bortezomib (Axon, Medchem, France) and at day 4 post treatment, the viable cells were assessed using Cell Titer Glo assay (Promega, Madison, WI). The IC50 at 96h were determined using GraphPad Prism software.
(§2) Considering the GEP of 40 HMCLs (Moreaux et al., 2011), HMCLs AOX and ROS risk signatures were determined. The 5 HMCLs with the highest (AMO1, L363, LP1, OPM2, RPMI8266) and the lowest (JJN3, XG-6, XG-19, XG-20, XG-24) AOX/ROS scores were selected to assay Melphalan and Bortezomib sensitivities (Moreaux et al., 2012 and Moreaux et al., 2013).

[2] = test system: CD138+ cells from patients (primary myeloma cells); test: Primary CD138+ myeloma cells from patient bone marrow samples, flow cytometry with anti-CD138 APC antibody after 5 days; assay type: cell-based, human; conditions: 5 mM GSH with 10, 20 and 30 μM Melphalan, n=10 patients, p<0.05
Method: After 5 days the percentage and absolute number of CD138^+ cells was assessed by flow cytometry using an anti-CD138 APC antibody. * indicates a significant difference using a Student test for pairs (P≤0.05).

[3] = test system: HMCLs with high AOX/ROS risk signatures (AMO1, L363, LP1, OPM2, RPMI8266); test: HMCL viability, Cell Titer Glo assay, IC50 at 96h (high AOX/ROS risk signature lines); assay type: cell-based; conditions: Homo sapiens
Method: as §1, §2

Q: How did the IC50 ([1]; JJN-3, low AOX/ROS HMCLs, 96h, median over 5 cell lines, read-out: Median IC50) turn out when `CC(C)C[C@H](NC(=O)[C@H](Cc1ccccc1)NC(=O)c1cnccn1)B(O)O` [Bortezomib] was run?
A: 0.00051 µM

Q: And the IC50 ([1]; JJN-3, low AOX/ROS HMCLs, 96h, range over 5 cell lines, read-out: IC50 range)?
A: 0.00027 to 0.00085 µM

Q: And the “fold higher sensitivity of low AOX/ROS HMCLs as compared to high AOX/ROS HMCLs” value [1]?
A: 3.5 fold

Q: With `N[C@@H](CCC(=O)N[C@@H](CS)C(=O)NCC(=O)O)C(=O)O` [GSH, glutathione] as the compound, how does the “protection of primary myeloma cells from melphalan induced apoptosis” value [2] read?
A: significantly protect

Q: `N[C@@H](Cc1ccc(N(CCCl)CCCl)cc1)C(=O)O` [Melphalan] was tested. Which IC50 ([3]; read-out: IC50 range) did it give?
A: 9.02 to 18.7 µM

Q: What about the IC50 ([3]; read-out: Median IC50) of the same compound?
A: 13.7 µM

Q: What about the IC50 ([1]; JJN-3, 96 h, read-out: IC50 range) of the same compound?
A: 2.25 to 8.34 µM

Q: And the IC50 ([1]; JJN-3, 96 h, read-out: Median IC50)?
A: 3.11 µM

Q: And the “fold higher sensitivity of low AOX/ROS HMCLs as compared to high AOX/ROS HMCLs” value [1]?
A: 4 fold
